Measurements: patent publication US9440941B2, “Substituted chroman-6-yloxy-cycloalkanes and their use as pharmaceuticals” (SANOFI, priority 2013, dated 2016)
Structures can show the parent of a compound that is named as a salt.

Biological target: T1, human NCX1 (Homo sapiens, UniProt P32418)
T1 construct: expressed in transfected cells
Experiment: Inhibition of Ca2+ influx into cells (NCX1 reverse mode), FLIPR Fluo-4 assay
Format: cell-based
Conditions: at 10 μM; NCX1 reverse mode; IC50 value not determined; read-out: Inhibition in % at 10 μM (NCX1rv)
Text: The sodium/calcium exchanger NCX1 can transport calcium ions and sodium ions through the cell membrane. The transport is an exchange of Ca^2+ and Na^+ in two directions depending on membrane potential and ion gradients. At the first direction, named “forward mode” or “calcium export mode”, Ca^2+ is transported out of the cell and Na^+ is transported into the cell. At the other direction, named “reverse mode” or “calcium import mode”, the transport directions are vice versa. The effect of the compounds of the invention on NCX1 was determined in CHO cells stably expressing human NCX1 (gene symbol SLC8A1; cf. WO 2009/115238). The assay is based on the monitoring of intracellular Ca^2+ concentrations using a calcium-sensitive fluorescence dye which is detected by means of a FLIPR device (Fluorimetric Imaging Plate Reader, Molecular Devices).
Assay Technology—Reverse Mode
The assay is based on the monitoring of intracellular Ca^2+ concentrations using the calcium-sensitive dye Fluo-4. CHO cells expressing NCX1 were loaded with the dye by means of the acetoxymethyl ester Fluo-4 AM (Invitrogen, F14202), which is cleaved intracellularly by esterase activity to yield the charged species of free Fluo-4. After an preincubation period with the test compound, Gramicidine (Sigma, G5002) was added. Gramicidine is an ionophor for Na^+ ions mediating an increase of intracellular Na^+ ions. Consequently, intracellular Na^+ ions are exchanged against extracellular Ca^2+ ions (Ca^2+ influx, reverse mode). The intracellular elevation of Ca^2+ ions was detected by measuring the fluorescence of Fluo-4 at a wavelength of 520 nm by a FLIPR device.
Briefly, for the reverse mode transport assay 18000 cells per well were seeded into a 96 well microplate (Corning COSTAR 3904) and incubated overnight in culture medium (1× Nut Mix F12 (Ham) (Gibco, 21765-029); 10% (v/v) fetal calf serum (PAA Gold, A15-649); 450 μg/ml Geneticin (Gibco, 10131-027)). A total volume of 100 μl medium per well was used. For the preparation of the FLIPR assay, the culture medium was removed from the plates and 100 μl of dye solution (2 μM Fluo-4 AM; 0.02% (v/v) Pluronic F-127 (20%, Invitrogen, P3000MP); 0.1% (v/v) bovine albumin solution (30% (v/v), Sigma, A9205) in assay buffer (133.8 mM NaCl (Sigma, S5886); 4.7 mM KCl (Sigma, P3911); 1.25 mM MgCl2 (Merck, 1.05833.0250); 3.5 mM CaCl2 (Merck, 1.02083.0250); 5 mM glucose (Sigma, G7021); 10 mM Hepes (Sigma, H4034); 0.01% (v/v) Pluronic F-127 (5%, Sigma, P2443); 2.5 mM Probenecid (Maybridge, SB00915EB); pH 7.4)) were added into each well. The plates were incubated in the dark at room temperature for 80 min. After the incubation period, the dye solution was removed and the wells were washed with 100 μl of assay buffer. Then 80 μl of a solution of the test compound in assay buffer in different concentrations were added into the wells. The plates were incubated at 16° C. for 45 min. Meanwhile a 60 μM solution of Gramicidine in assay buffer (4° C.) was prepared and stored in the wells of a 96 well microplate (96 well microplate, polypropylene, U-shape (Greiner Bio-One, 650201)) at 4° C. until measurement was started. The fluorescence monitoring was performed at 240 measuring points with measurement intervals of 2 sec. After the fifth measuring point, 40 μl of the Gramicidine solution were added to each well of the assay plates to give a final Gramicidine concentration of 20 μM. For the determination of the IC50 values the minimal fluorescence value was subtracted from the maximal fluorescence value for all measuring points. The calculation of the IC50 values via the percentage inhibitions of Ca^2+ influx into cells (reverse mode) effected by the test compound was performed in Biost@t Speed 2.0.

inhibition at 10 µM [%] | Molecule
94 | COCC(C)(C)CNC1CCC(Oc2ccc3c(c2)CCC(c2ccccc2C)O3)CC1 (stereo not drawn) [compound 200]

Same assay, conditions: at 10 μM; NCX1 reverse mode; IC50 value not determined; read-out: NCX1rv inhibition in % at 10 μM

inhibition at 10 µM [%] | Molecule
96 | COCC(C)NC1CCC(Oc2ccc3c(c2)CCC(c2ccccc2C)O3)CC1 (stereo not drawn) [compound 188]
95 | CCSCCNC1CCC(Oc2ccc3c(c2)CCC(c2ccccc2C)O3)CC1 (stereo not drawn) [compound 191]

Same assay, conditions: inhibition of NCX1 in reverse mode (Ca2+ influx into cells); read-out: NCX1rv IC50

Molecule | IC50 [nM]
Cc1nc(C(=O)N[C@H]2CC[C@H](Oc3ccc4c(c3)CCC(c3ccccc3)O4)CC2)cs1 (relative stereo) [compound 29] | 300
CC(C)OCCCNC1CCC(Oc2ccc3c(c2)CCC(c2ccccc2)O3)CC1 (stereo not drawn) [compound 134] | 1100
CS(=O)(=O)CCC(=O)N[C@H]1CC[C@H](Oc2ccc3c(c2)CCC(c2ccccc2F)O3)CC1 (relative stereo) [compound 259] | 100
Cc1nc(CNC2CCC(Oc3ccc4c(c3)CCC(c3ccccc3)O4)CC2)no1 (stereo not drawn) [compound 97] | 500
O=C(N[C@H]1CC[C@H](Oc2ccc3c(c2)CCC(c2ccccc2)O3)CC1)c1ccncc1F (relative stereo) [compound 31] | 100
Fc1ccccc1C1CCc2cc(O[C@H]3CC[C@H](NCC4CCOC4)CC3)ccc2O1 (relative stereo) [compound 178] | 1600
CCC(C)CN[C@H]1CC[C@H](Oc2ccc3c(c2)CCC(c2ccccc2)O3)CC1 (stereo partly drawn) [compound 70, N-(2-methylbutyl)-[trans-4-(2-phenylchroman-6-yloxy)]-cyclohexylamine] | 500
NCC(=O)N[C@H]1CC[C@H](Oc2ccc3c(c2)CC[C@H](c2ccccc2)O3)CC1 [compound 160, hydrochloride] | 1100
COC[C@H](C)NC1CCC(Oc2ccc3c(c2)CCC(c2ccccc2F)O3)CC1 (stereo partly drawn) [compound 221] | 2300
COC(=O)CNC(=O)C1CCC(Oc2ccc3c(c2)CCC(c2ccccc2)O3)CC1 (single isomer, unassigned; stereoisomer 2) [compound 92, Methyl 2-[[cis-4-[2-phenylchroman-6-yloxy]cyclohexanecarbonyl]amino]acetate,stereoisomer 2 (2)] | 100
Cc1ccccc1C1CCc2cc(O[C@H]3CC[C@@H](CNC(=O)CN)CC3)ccc2O1 (relative stereo) [compound 185, hydrochloride] | 600
CCC(C)CN(CC(C)CC)[C@H]1CC[C@H](Oc2ccc3c(c2)CCC(c2ccccc2)O3)CC1 (stereo partly drawn) [compound 88, N,N-Bis(2-methylbutyl)-[trans-4-(2-phenylchroman-6-yloxy)]-cyclohexylamine] | 2500
Cc1nn(C)c(C)c1CN[C@H]1CC[C@H](Oc2ccc3c(c2)CCC(c2ccccc2)O3)CC1 (relative stereo) [compound 60] | 400
Cc1cc(CN[C@H]2CC[C@H](Oc3ccc4c(c3)CCC(c3ccccc3)O4)CC2)no1 (stereo partly drawn) [compound 49, N-(5-Methylisoxazol-3-ylmethyl)-[trans-4-(2-phenylchroman-6-yloxy)]-cyclohexylamine] | 600
Fc1ccccc1C1CCc2cc(OC3CCC(NCCCC4CCOC4)CC3)ccc2O1 (stereo not drawn) [compound 228] | 2200
CCn1nccc1CNC1CCC(Oc2ccc3c(c2)CCC(c2ccccc2)O3)CC1 (stereo not drawn) [compound 76] | 1000
Cn1cc(Cl)c(CN(Cc2nn(C)cc2Cl)[C@H]2CC[C@H](Oc3ccc4c(c3)CCC(c3ccccc3)O4)CC2)n1 (stereo partly drawn) [compound 81, N,N-Bis(4-chloro-1-methyl-pyrazol-3-ylmethyl)-[trans-4-(2-phenylchroman-6-yloxy)]-cyclohexylamine] | 4000
Cc1ccn(CC(=O)N[C@H]2CC[C@H](Oc3ccc4c(c3)CCC(c3ccccc3)O4)CC2)n1 (relative stereo) [compound 28] | 200
Cc1nc(CN[C@H]2CC[C@H](Oc3ccc4c(c3)CCC(c3ccccc3)O4)CC2)cs1 (stereo partly drawn) [compound 59, N-(2-Methylthiazol-4-ylmethyl)-[trans-4-(2-phenylchroman-6-yloxy)]-cyclohexylamine] | 500
c1ccc(C2CCc3cc(O[C@H]4CC[C@H](N(Cc5ccoc5)Cc5ccoc5)CC4)ccc3O2)cc1 (stereo partly drawn) [compound 85, N,N-Bis(furan-3-ylmethyl)-[trans-4-(2-phenylchroman-6-yloxy)]-cyclohexylamine] | 800
CCCN(CCC)[C@H]1CC[C@H](Oc2ccc3c(c2)CC[C@@H](c2ccccc2)O3)CC1 [compound 34] | 1300

More lines, now with the values ahead:

IC50 [nM] | Molecule
200 | Cc1nc(CNC(=O)[C@H]2CC[C@@H](Oc3ccc4c(c3)CCC(c3ccccc3)O4)CC2)no1 (single isomer, unassigned; stereoisomer 1) [compound 95, N-(5-Methyl-[1,2,4]oxadiazol-3-ylmethyl)-[4-cis-(2-phenylchroman-6-yloxy)]-cyclohexanecarboxamide, stereoisomer 1 (2)]
3100 | CCC(COC)NC1CCC(Oc2ccc3c(c2)CCC(c2ccccc2F)O3)CC1 (stereo not drawn) [compound 222]
300 | N[C@@H](CO)C(=O)N[C@H]1CC[C@H](Oc2ccc3c(c2)CCC(c2ccccc2)O3)CC1 (stereo partly drawn) [compound 181, hydrochloride]
1500 | Cc1n[nH]c(C)c1CC(=O)N[C@H]1CC[C@H](Oc2ccc3c(c2)CCC(c2ccccc2F)O3)CC1 (relative stereo) [compound 235]
2000 | C[C@H]1CC[C@H](NC2CCC(Oc3ccc4c(c3)CCC(c3ccccc3)O4)CC2)CC1 (relative stereo) [compound 146]
2400 | CSCCNC1CCC(Oc2ccc3c(c2)CCC(c2ccccc2F)O3)CC1 (stereo not drawn) [compound 226]
1500 | COC[C@H](C)NC1CCC(Oc2ccc3c(c2)CCC(c2ccccc2C)O3)CC1 (stereo partly drawn) [compound 207]
1700 | Fc1ccccc1C1CCc2cc(OC3CCC(NC4CC4)CC3)ccc2O1 (stereo not drawn) [compound 212]
600 | Cc1c(F)cccc1C1CCc2cc(OC3CCC(C(=O)NCC(C)O)CC3)ccc2O1 (stereo not drawn) [compound 276]
1500 | Cc1ccccc1C1CCc2cc(OC3CCC(NC4CC4)CC3)ccc2O1 (stereo not drawn) [compound 203]
10000 | CCn1nccc1CNC(=O)C1CCC(Oc2ccc3c(c2)CCC(c2ccccc2F)O3)CC1 (stereo not drawn) [compound 183]
1900 | Cc1ccccc1C1CCc2cc(OC3CCC(NCCN4CCOCC4)CC3)ccc2O1 (stereo not drawn) [compound 202]
2100 | 4-(2-Phenylchroman-6-yloxy)-N-(2-piperidin-1-ylethyl)cyclohexylamine [compound 145]
1700 | CC(CN(C)C)NC1CCC(Oc2ccc3c(c2)CCC(c2ccccc2)O3)CC1 (stereo not drawn) [compound 128]
9400 | Cc1cccc(C)c1C1CCc2cc(OC3CCC(NCc4c(C)nn(C)c4C)CC3)ccc2O1 (stereo not drawn) [compound 164]
500 | c1ccc(C2CCc3cc(O[C@H]4CC[C@H](NCc5ccoc5)CC4)ccc3O2)cc1 (stereo partly drawn) [compound 53, N-(Furan-3-ylmethyl)-[trans-4-(2-phenylchroman-6-yloxy)]-cyclohexylamine]
100 | Cc1c(F)cccc1C1CCc2cc(OC3CCC(C(=O)NC4CCCC4O)CC3)ccc2O1 (single isomer, unassigned; stereoisomer 2) [compound 280, 4-[2-(3-Fluoro-2-methyl-phenyl)chroman-6-yloxy]-N-(2-hydroxycyclopentyl)cyclohexane-carboxamide, stereoisomer 2 (2)]
1100 | CC(C)(C)CCNC1CCC(Oc2ccc3c(c2)CCC(c2ccccc2)O3)CC1 (stereo not drawn) [compound 127]
